Measurements as given in patent publication US20230040415A1 (PureTech LYT 100, Inc., priority 2020, published 2023).
Read-outs that look alike come from different tables or passages of the source.

Key:
[1] = Multiple ascending dose (MAD) study Part 1, plasma pharmacokinetics
Protocol: All Part 1 cohorts will be dosed every 12 hours with food for 5 days.
During the treatment period (Day 1 through Day 5), subjects will be administered their assigned study medication BID, every 12 h±0.25 h (with approximately 240 mL of non-carbonated water), 30 minutes after the start of consumption of their standardised breakfast or dinner (12 h apart). A standardised lunch will be served >4 h post breakfast and >4 h prior to dinner. An evening snack will be served >3 h following evening study medication administration. No additional fluids will be allowed during the 1 h pre- and post-doses. On Day 6, subjects will replicate mealtimes as scheduled on Day 1-5. To ensure study drug dosing every 12 hours, here is an example of meal and dosing schedule in Part 1: • Breakfast: meal to be served 30 mins prior to AM dosing. Breakfast must be completed within 30 mins of start time. • Lunch: meal to be served at least 4 h post-AM study drug dose. • Dinner: meal to be served at least 11.5 h post-AM dose and served 30 minutes prior to PM study drug dose. • Evening snack: Snack to be served at least 15 h post-AM dose (at least 3 h post-PM dose).
In Part 1, blood samples (4 mL each) for PK will be collected for Cohorts 1, 2, 3, 4, and 6 at specified times (hours) at each as follows: • Day 1 and Day 5: 0 (pre-dose), 0.5, 1, 1.5, 2, 2.5, 3, 3.5, 4, 6, 8, 12 (pre-dose), 13, 14, 15, 16, 18 h • Day 2, Day 3 and Day 4: 0 (pre-morning-dose) and 12 h (pre-evening-dose) • Day 6: 12, 18, 24 and 36 h post-last dose • Day 7: 48 h (post-last dose)
Pharmacokinetics for Day 1 to 3 in Part 2 (fed state) will be compared to PK for Day 1 to Day 3 in Part 2 (fasted state). Plasma PK parameters (non-compartmental or compartmental analysis as appropriate) will include, but are not limited to: • Following single dose: Tmax, tlag, Cmax, AUC0-4, AUC0-last, AUC0-inf, lambda z, % AUCext, CL/F, Vz/F, Cmax/D, AUC0-last/D, AUC0-inf/D and MRT (D is dose) • After repeated doses: Ctrough, Ctrough/D • Following repeated doses on last day: Tmax, Cmax, Cavg, tlag, t1/2, AUC0-4, AUC0-last, AUC0-inf, lambda z, % AUCext, CLss/F, Vzss/F, MRT, PTF, Rac(AUC), Rac(Cmax), Cmax/D, AUClast/D, AUC0-inf/D and Rac (accumulation ratio) Part 3 (Patients with Secondary Lymphoedema Post-Axillary/Post-Sentinel Node Dissection)

[2] = Repeat dose oral toxicity and toxicokinetics study in Sprague Dawley rats; conditions: for dose proportionality of AUC0-24 / dose proportionality of Cmax: SD-560 250 to 750 mg/kg, Groups 2 to 4; for exposure in rat relative to human: male rat after 28 days of daily dosing vs human
Protocol: The protocol was amended to add additional TK male animals in Group 6 for Day 1 collection of TK samples at 875 mg/kg.
Blood samples were collected from 3 subsets of 3 animals/sex on Day 1 and Day 28 at predose, 0.25, 0.5, 1, 2, 4, 8 and 24 hours (hr) post-dose for groups 2 to 6 and from one subset of 3 animals/sex at 0.25 hr post-dose for the vehicle group (group 1). […] Non-compartmental analysis (NCA) of plasma concentration data was conducted using Phoenix® WinNonlin®, version 8.0.

[3] = Single-dose crossover clinical trial, 801 mg LYT-100 vs pirfenidone, plasma pharmacokinetics; conditions: for Cmax / % AUC extrap / AUC0-t / AUC(inf) / Kel / t1/2 / tmax: fed, analyte = label; for Cmax / % AUC extrap / AUC0-t / AUC(inf) / Kel / t1/2: mean; for Cmax: n = 24; for tmax: median
Text: Following screening, eligible healthy volunteer subjects were admitted to a single clinical study site and were randomized to 1 of 2 treatment sequences. […] In each period, a standardized breakfast was provided to subjects prior to administration of study drug (to compare the PK profiles in the clinically relevant fed state) and plasma samples were collected over a 48-hour period after dosing for evaluation of PK. Dosing between the 2 periods was separated by a minimum of 7 days. Subjects completed the study upon completion of the 48-hour post-dose assessments following dosing period 2.
All capsules were identical in size, shape, and external color.
The mean Cmax values are computed from each individual subjects Cmax value (which could occur at different Tmax times for each individual), i.e., the mean Cmax value reported in the PK parameter table is not the Cmax for a mean concentration-time curve.

[4] = Food effect study Part 2, single 500 mg dose fed vs fasted; assay type: in vivo, human
Protocol: The comparison will be based on Day 1, Day 2 and Day 3 PK plasma samples after the first dose of study drug on Day 1 under fast and fed conditions of Part 2.
Subjects will be admitted to the CRU on Day −1 and will fast overnight for at least 10 h.

[5] = parameters: AUC, Fasted / AUC, Fed: unit not given beside the values; conditions: cited from earlier work; for share of recovered drug material in urine excreted as label: humans, oral pirfenidone
[6] = cited from earlier work
[7] = FIG. 23 (Cohort 6, 1000 mg BID)
[8] = LYT-100 100, 250, 500, 750 mg BID cohorts (FIG. 19)
[9] = Day 1, Female, label = Group 4 analyte vs its non-deuterated counterpart
[10] = LYT-100 @500 mg single dose, analyte = label
[11] = LYT-100 @500 mg, 5-CO2 metabolite
[12] = Treatment = LYT-100, single 801 mg oral dose
[13] = Treatment = LYT-100, single 801 mg
[14] = Treatment = Pirfenidone, single 801 mg oral dose
[15] = Treatment = Pirfenidone, single 801 mg

| Compound | average ratio of metabolite to the parent (M/P) by AUC [1, 7] | average ratio of metabolite to the parent (M/P) by AUC [1, 8] | AUC ratio Group 4 (LYT-100 at 750 mg/kg) / Group 5 (SD-559 at 750 mg/kg) [2, 9] | AUC ratio Group 4 (LYT-100 at 750 mg/kg) / Group 5 (SD-559 at 750 mg/kg) ([2]; Day 1, Male) | AUC ratio Group 4 (LYT-100 at 750 mg/kg) / Group 5 (SD-559 at 750 mg/kg) ([2]; Day 28, Female) | dose proportionality of AUC0-24 [2] | dose proportionality of Cmax [2] | share of recovered drug material in urine excreted as label [5] | AUC ratio Group 4 (LYT-100 at 750 mg/kg) / Group 5 (SD-559 at 750 mg/kg) ([2]; Day 28, Male) | exposure in rat relative to human [2] [fold] | Cmax [3, 12] [ng/mL] | % AUC extrap [3, 13] [%] | AUC0-t [3, 13] [ng·h/mL] | AUC(inf) [3, 13] [ng·h/mL] | Kel [3, 13] [h⁻¹] | t1/2 [3, 13] [h] | tmax [3, 13] [h] | Cmax [3, 14] [ng/mL] | % AUC extrap [3, 15] [%] | AUC0-t [3, 15] [ng·h/mL] | further results |
| --- | --- | --- | --- | --- | --- | --- | --- | --- | --- | --- | --- | --- | --- | --- | --- | --- | --- | --- | --- | --- | --- |
| [2H]C([2H])([2H])c1ccc(=O)n(-c2ccc(O)cc2)c1 [LYT-103, d3-4′-hydroxy-pirfenidone] | 0.0037 (0.0030-0.0058) | 0.0017 (0.0012-0.0022) | 21.77 | 34.51 | 38.04 | dose proportionally | less than dose proportional |  |  |  |  |  |  |  |  |  |  |  |  |  | quantifiability of metabolite in human ([3]; after LYT-100): not quantifiable |
| O=C(O)c1ccc(=O)n(-c2ccccc2)c1 [LYT-105, 5-carboxy-pirfenidone] | 0.56 (0.44-0.66) | 0.45 | 0.49 | 0.45 | 0.71 | dose proportional | approximately dose proportional | > 95% | 0.57 | ~7 | 3970 | 1.13 | 23090 | 23350 | 0.262 | 2.91 | 2.50 | 5241 | 0.843 | 26932 | AUC, % Change Fed vs Fasted [4, 10]: < 5%; Cmax, % Change Fed vs Fasted [4, 10]: < 5%; Tmax, Fasted [4, 11]: 0.75 h; Tmax, Fed [4, 11]: 1 h; plasma exposure relative to exposure to pirfenidone ([5]; Huang, 2013): approximately 50%; average ratio of metabolite to the parent (M/P) by AUC ([1]; LYT-100 100, 250, 500, 750 mg BID cohorts (FIG. 19), listed as SD-789): 0.45 (0.37-0.50); dose dependence of AUC96-108 ([1]; across all dose Cohorts, 100-1000 mg BID): linear dose proportionality; lower Cmax and exposure than SD-789 formed from SD-559 ([2]; SD-560 750 mg/kg vs SD-559 750 mg/kg): approximately 50%; AUC(inf) [3, 15]: 27159 ng·h/mL; Kel [3, 15]: 0.288 h⁻¹; t1/2 [3, 15]: 2.55 h; tmax [3, 15]: 3.00 h; Cmax reduction of 5-carboxy-pirfenidone after LYT-100 relative to pirfenidone ([3]; single 801 mg dose each): 25% |
| [2H]C([2H])(O)c1ccc(=O)n(-c2ccccc2)c1 [LYT-110, 5-(hydroxymethyl-d2)-pirfenidone] | 0.0028 (0.0018-0.0038) | 0.0025 (0.0020-0.0029) | 2.50 | 2.22 | 2.59 | dose proportional | dose proportional |  | 2.54 | ~1600 | 20.6 | 10.1 | 111 | 124 | 0.294 | 2.76 | 2.50 |  |  |  | exposure and Cmax vs non-deuterated metabolite SD-788 from SD-559 ([2]; 750 mg/kg, all days, both genders): almost twice |
| O=c1ccc(CO)cn1-c1ccccc1 [LYT-111, 5-hydroxymethyl-pirfenidone] |  |  |  |  |  |  |  |  |  |  |  |  |  |  |  |  |  | 17.1 | 10.3 | 75.8 | AUC(inf) [3, 15]: 89.7 ng·h/mL; Kel [3, 15]: 0.367 h⁻¹; t1/2 [3, 15]: 2.04 h; tmax [3, 15]: 2.50 h; overall systemic exposure (AUC) of metabolite greater after LYT-100 than after pirfenidone ([3]; single 801 mg dose each): approximately 50% |
| Cc1ccc(=O)n(-c2ccccc2)c1 [Pirfenidone, 5-methyl-1-phenyl-1H-pyridin-2-one] |  |  |  |  |  |  |  | less than 1% |  |  |  |  |  |  |  |  |  |  |  |  | AUC, Fasted ([5]; Pirfenidone @800 mg): 69.7; AUC, Fed ([5]; Pirfenidone @800 mg): 59.3; Tmax, % Change Fed vs Fasted ([5]; Pirfenidone @800 mg): 500%; Tmax, Fasted ([5]; Pirfenidone @800 mg): 0.5 h; diarrhea, frequency ([6]; Lancaster et al. 2017, IPF): ≤ 27.6 per 100PEY; fatigue, frequency ([6]; Lancaster et al. 2017, IPF): ≤ 52.4 per 100PEY; nausea, frequency ([6]; Lancaster et al. 2017, IPF): ≤ 62.1 per 100 PEY; adverse drug reactions leading to permanent treatment discontinuation ([6]; PASSPORT study, Cottin et al. 2018): 28.7%; patients with an adverse event ([6]; compassionate use program, Raghu & Thickett 2013): 44%; patients with ADR leading to discontinuation ([6]; patients aged <65 years): 7.5%; patients with ADR leading to dose modification/interruption ([6]; patients aged <65 years): 18.0%; patients with ADR leading to discontinuation ([6]; patients aged ≥80 years): 20.9%; patients with ADR leading to dose modification/interruption ([6]; patients aged ≥80 years): 32.7%; elevations of AST and ALT to >3× ULN ([6]; phase III trials): 3.2%; reported AEs that were GI-related ([6]; single-center retrospective study of 351 patients): 75% |
